Data reported in patent publication US20170023547A1, “CHEMICAL THREAT ASSESSMENT BY RAPID MOLECULAR PHENOTYPING” (Vanderbilt University, priority 2015, published 2017).

Columns and labels:
Type in all cases: cell-based, Human
A549 cells [1] = assay: Multi-omics analysis (transcriptome, proteome, phosphoproteome, metabolome); settings: 50 μM cisplatin, A549 cells, 1, 6, 24 and 48 h
Procedure: Samples were analyzed for transcriptome changes by RNA sequencing at the Genomics Services Lab, HudsonAlpha, for proteome changes by label free, SILAC, and phospho-enriched SILAC LC-MS/MS, and metabolome changes by UPLC-IM-MS and data-independent acquisition (MSE) using both hydrophilic-interaction liquid chromatography and reverse phase liquid chromatography.
RNA was isolated using the RNeasy Mini Kit (Qiagen). For each time point, untreated and cisplatin-treated samples were isolated in triplicate and analyzed by the Genomics Services Lab at HudsonAlpha. RNAseq was performed using poly(A) selection on an Illumina HiSeq v4 sequencing platform. Reads were paired-end with a read length of 50 bp and 50 million reads per sample.
Cells were scraped from slides and lysed in 300 μL of 50 mM Tris pH 8, 150 mM NaCl, 1% Nonidet 40, 1 mM EDTA with added HALT Protease Inhibitor Cocktail (Thermo Scientific), centrifuged, and assayed for protein concentration (BCA Protein Assay, Thermo Scientific Pierce) using a SpectraMax M2e Microplate Reader with SoftMax Pro software version 5 (Molecular Devices). Aliquots of 100 μg of protein were acetone precipitated in six times the volume for 2 h at −80° C. Precipitates were washed three times with cold acetone and reconstituted in 10 μL of neat trifluoroethanol (TFE) and 10 μL of 100 mM Tris (pH 8.0). […]

A549 cells [2] = assay: Apoptosis assay (ApoONE, caspase 3/7 activation); settings: 50 μM cisplatin
Procedure: Cell viability and apoptosis were assessed by CellTiter Glo (Promega) and ApoONE (Promega) kits, respectively. Molecular changes were screened using a MALDI524 FTICR MS platform.
Human lung carcinoma A549 cells were obtained from ATCC (Manassas, Va.) and cultured in Dulbecco's Modified Eagle's Medium (DMEM, Gibco) with 10% v/v heat-inactivated fetal bovine serum (Atlanta Biologicals) and 1% v/v penicillin/streptomycin (P/S) (Gibco) at 37° C. with 5% CO2 atmosphere. Stable isotope labeling by amino acids in cell culture (SILAC) media were prepared using SILAC DMEM (Thermo Scientific) containing 10% v/v dialyzed heat-inactivated FBS (Fisher), 1% v/v P/S, proline (250 mg/L) (Thermo Scientific), and appropriate light and heavy labeled arginine (84 mg/L), lysine (146 mg/L). […]
At each time point, cell viability and apoptosis were assessed by CellTiter-Glo (Promega) and ApoONE (Promega) kits, respectively. Plates were incubated at 37° C. in a plate reader (BioTek) with data acquisition every 10 min by luminescence (1 s read time, 200 gain) and fluorescence (485 nm excitation, 528 nm emission). […] Cell viability was also assessed using the LIVE/DEAD Viability/Cytotoxicity Kit for mammalian cells (ThermoFisher). […]

A549 cells [3] = assay: Molecular screening assay (MALDI FTICR MS molecular variance score); settings: 1 and 6 h exposure, doses 20-100 μM
Procedure: After incubation for the respective times, wells were washed 3 times with PBS and stored at −80° C. The effect of different toxin dosage amounts and exposure times on the molecular content of a sample may be evaluated and reported directly for thousands of molecular species based upon the mass spectra that were collected for each of the samples. A comparison of the mass-to-charge (m/z) peak content between spectra from dosed cells and a reference spectrum from a non-dosed control sample delivers a mass spectrometric assessment of toxicity-induced molecular variation. However, seeking a data-driven global comparison instead of focusing on specific molecular species of interest makes the assessment of molecular change between the different experimental conditions very complex and high dimensional. To determine which dosage amount induces the greatest molecular change, a quick and broad assessment of toxicity-induced molecular variance summarizing the entire recorded mass range was developed. […]
Within each time point (represented by a 24-well plate), seven different dosage conditions were measured: six different toxin dosages and one reference condition (e.g., untreated). Per dosage condition there were nine distinct replicate measurements made: each dosage condition was represented by three replicate wells, from which three technical replicate spectra were measured per well. […]

N.N.[Cl][Pt][Cl] [cisplatin]
percentage of unique species detected that were significantly changed (A549 cells [1]): 24% | number of significantly changed unique species (A549 cells [1]; of 53,500 unique species detected): 13,483 | time of maximal caspase activation (A549 cells [2]): 24 h | dose up to which molecular variance increased (maximum molecular response, optimal dose) (A549 cells [3]): 50 µM
